Patent publication US20230293539A1, “MLL1-WDR5 PROTEIN-PROTEIN INTERACTION INHIBITOR COMPOUNDS AND USES THEREOF” (HUYABIO International, LLC, priority 2022, published 2023)

Columns and labels:
[1] = Mouse PK (oral); assay type: in vivo, C57/B16 mice; conditions: for Cmax: plasma; for AUC(0-t) / half-life: C57/B16, plasma
Protocol: Mouse PK: Animals were dosed with a single intravenous bolus or oral gavage administration in naïve C57/B16 mice (Beijing Vital River Laboratory Animal Co., LTD). Blood samples were collected at the respective sampling time points. The quantification of compound concentrations in mouse or rat plasma was quantified using LC-MS/MS method. Plasma concentration versus time data was analyzed by non-compartmental mode approaches using the WinNonlin software program (version 6.3 or above, Pharsight). Pharmacokinetic parameters, including C0 (initial concentration after drug administration), […], Vdss (volume of distribution), Cmax (maximum peak concentration of the drug), Tmax (time required to reach Cmax) T1/2 (time required for drug concentration to decrease by 50% after administration), AUC0-last (area under the concentration-time curve from dosing time t=0 to the time of the last measured concentration), AUC0-inf (total drug exposure across time), MRT0-last (mean residence time from dosing time t=0 to the time of the last measured concentration), MRT0-inf f (mean residence time of total drug exposure), bioavailability (%) (the percentage (or the fraction F) of an administered drug dose that reaches the systemic circulation) for IV and PO groups were calculated. See Table 7 and FIGS. 6A, 6B, 6C and 6D.

[2] = system: MV 411 cells; assay: Cell Viability Assay (CellTiter-Glo); assay type: cell-based; conditions: Homo sapiens, MV4-11, 72 hours, read-out: IC50 (anti-proliferative activity against leukemia cells)
Protocol: Cell lines and maintenance: All cell lines (MV 411) used for in vitro and in vivo studies were supplied as part of Wuxi AppTech cell bank. Cell lines were maintained in a medium supplemented with 10% heat inactivated fetal bovine serum at 37° C., in an atmosphere of 5% CO2, in air. The tumor cells were routinely subcultured twice weekly. The cells growing in an exponential growth phase were used for the in vitro cell potency and in vivo efficacy studies.
EXAMPLE 1: Cell Viability Assay: For cell cytotoxicity assays, 2000 cells/well were plated in 384-well plates. Twenty four hours after plating, cells were treated with inhibitors at the indicated compound concentrations. On Day 3 (72 hours), cells were lysed with CellTiter-Glo® Luminescent Cell Viability Assay reagent (Promega) and luminescence was read using the EnVision Multi-plate reader. To calculate IC50, a dose-response curve is generated using a nonlinear regression model with a sigmoidal dose response. The formula of surviving rate is shown below. IC50 values were automatically generated by GraphPad Prism 8.0. See FIG. 1A and FIG. 1B and Tables 3 and 4.

[3] = Dog PK (oral); assay type: in vivo, Beagle dogs; conditions: for Cmax / AUC(0-t) / half-life: Beagle, plasma
Protocol: Dog PK: Fasted or fed non-naïve Beagle dogs (Marshall Bioresources, Beijing, China) were administered a single intravenous bolus or oral gavage administration of test compounds at respective doses. Blood samples for plasma isolation were collected from a peripheral vessel, from restrained, non-sedated animals at the respective sampling time points. The quantification of compound concentrations in dog plasma was quantified using LC-MS/MS method. Plasma concentration versus time data was analyzed by non-compartmental mode approaches using the WinNonlin software program (version 6.3 or above, Pharsight). Pharmacokinetic parameters, including C0, CL, Vdss, Cmax, Tmax T1/2, AUC0-last, AUC0-inf, MRT0-last, MRT0-inf, bioavailability (%) for IV and PO groups were calculated. See FIGS. 9A, […], 9C and FIGS. 10A, 10B, 10C, and 10D.

[4] = WBS (whole blood stability) assay; assay type: in vitro ADME; conditions: for % Remaining after 60 min incubation: 2 μM, 37° C.
Protocol: WBS (whole blood stability) assay: The blood samples were collected freshly from multiple species including human, monkey, dog, rat and mouse. 2 μM of test compound and positive control were incubated with the whole blood at 37° C. at 0, 10, 30, 60, and 120 minutes in duplicate. After adding the stop solution, 200 μL of supernatant were analyzed by LC-MS/MS. The % remaining of test compound and T1/2 (min) were calculated and reported.

[5] = Liver S9 stability assay; assay type: in vitro ADME, mouse
Protocol: (§1) Liver S9 stability assay: Test compounds (1 μM) and positive control were incubated with 5 mM GSH and liver S9 (1 mg protein/ml) from multiple species (including human, monkey, dog, rat and mouse) at 37° C. at 0, 10, 30, and 60 minutes in duplicate. After adding the stop solution, 100 μL of supernatant were analyzed by LC-MS/MS. The % remaining of test compound, T1/2 (min), and CLint (μL/min/mg) were calculated and were reported.

[6] = Liver S9 stability assay; assay type: in vitro ADME, dog
Protocol: as §1

[7] = Liver S9 stability assay; assay type: in vitro ADME, rat
Protocol: as §1

[8] = Liver S9 stability assay; assay type: in vitro ADME, human
Protocol: as §1

[9] = Compound formulation stability assay; assay type: physicochemical; conditions: 10 mg/mL in 10% DMSO/10% solutol HS 15/80% water, 2-8° C.
Protocol: Compound formulation stability assay: Test articles were formulated in 10% DMSO/10% solutol HS 15/80% water and stored at 4° C. Formulated compounds were analyzed by a HPLC-UV method for actual concentrations and % remaining on Day 1, 4 and 7 after formulation to determine the stability of the formulated test article. The HPLC system was equipped with Shimadzu LC-20 high-performance liquid chromatograph, SIL-20AC auto sampler, LC-20AB pump and SPD-M20A detector. A Waters XBridge C18 (4.6*100 mm) column was applied for the separation. […]

Structure (SMILES): C[C@@H]1CN(c2ncc(-c3cc(Nc4ncnc(Cl)c4N)c(N4CCN(C)[C@@H](C)C4)cc3F)cn2)C[C@H](C)O1 [DDO-2213_023, 6-chloro-N4-(5-(2-((2S,6R)-2,6-dimethylmorpholino)pyrimidin-5-yl)-2-((S)-3,4-dimethylpiperazin-1-yl)-4-fluorophenyl)pyrimidine-4,5-diamine]
- F ([1]; 10 mpk): 82.5%
- F ([1]; 30 mpk): 93.8%
- Cmax ([1]; C57/B16, 10 mg/kg, 10 mpk): 1320 nM
- Cmax ([1]; C57/B16, 30 mg/kg, 30 mpk): 3430 nM
- AUC(0-t) ([1]; 10 mg/kg, 10 mpk): 16.4 µM·h
- half-life ([1]; 10 mg/kg, 10 mpk): 11.1 h
- AUC(0-t) ([1]; 30 mg/kg, 30 mpk): 56 µM·h
- half-life ([1]; 30 mg/kg, 30 mpk): 13.3 h
- IC50 [2]: 4.06 µM
- F ([3]; 1.5 mpk): 105.0%
- F ([3]; 4.5 mpk): 88.8%
- Cmax ([3]; 1.5 mg/kg, 1.5 mpk): 188 nM
- Cmax ([3]; 4.5 mg/kg, 4.5 mpk): 445 nM
- AUC(0-t) ([3]; 1.5 mg/kg, 1.5 mpk): 5.28 µM·h
- half-life ([3]; 1.5 mg/kg, 1.5 mpk): 63.6 h
- AUC(0-t) ([3]; 4.5 mg/kg, 4.5 mpk): 13.4 µM·h
- half-life ([3]; 4.5 mg/kg, 4.5 mpk): 48.2 h
- half-life at 2 μM ([4]; Dog whole blood): > 2.41 h
- % Remaining after 60 min incubation ([4]; Dog whole blood): 97.3%
- half-life at 2 μM ([4]; Human whole blood): 8.75 h
- % Remaining after 60 min incubation ([4]; Human whole blood): 103%
- half-life at 2 μM ([4]; Mouse whole blood): > 2.41 h
- % Remaining after 60 min incubation ([4]; Mouse whole blood): 103%
- half-life at 2 μM ([4]; Rat whole blood): > 2.41 h
- % Remaining after 60 min incubation ([4]; Rat whole blood): 103%
- half-life at 1 μM ([5]; Mouse liver S9): 2.1 h
- microsomal CLint at 1 μM ([5]; Mouse liver S9): 5.5 µL/min/mg
- % Remaining after 60 min incubation ([5]; Mouse liver S9, 1 μM, 5 mM GSH, 37° C.): 71.5%
- half-life at 1 μM ([6]; Dog liver S9): > 2.42 h
- microsomal CLint at 1 μM ([6]; Dog liver S9): < 4.8 µL/min/mg
- % Remaining after 60 min incubation ([6]; Dog liver S9, 1 μM, 5 mM GSH, 37° C.): 112%
- half-life at 1 μM ([7]; Rat liver S9): > 2.42 h
- microsomal CLint at 1 μM ([7]; Rat liver S9): < 4.8 µL/min/mg
- % Remaining after 60 min incubation ([7]; Rat liver S9, 1 μM, 5 mM GSH, 37° C.): 101%
- half-life at 1 μM ([8]; Human liver S9): > 2.42 h
- microsomal CLint at 1 μM ([8]; Human liver S9): < 4.8 µL/min/mg
- % Remaining after 60 min incubation ([8]; Human liver S9, 1 μM, 5 mM GSH, 37° C.): 81.8%
- Accuracy % (Day 0) ([9]; Day 0): 89.9%
- Formulation Appearance (Day 0) ([9]; Day 0): clear solution
- Remaining % (Day 0) ([9]; Day 0): 100%
- Accuracy % (Day 1) ([9]; Day 1): 81.3%
- Formulation Appearance (Day 1) ([9]; Day 1): clear solution
- Remaining % (Day 1) ([9]; Day 1): 90.4%
- Accuracy % (Day 4) ([9]; Day 4): 92.2%
- Formulation Appearance (Day 4) ([9]; Day 4): clear solution
- Remaining % (Day 4) ([9]; Day 4): 100%
- Accuracy % (Day 7) ([9]; Day 7): 91.5%
- Formulation Appearance (Day 7) ([9]; Day 7): clear solution
- Remaining % (Day 7) ([9]; Day 7): 99.1%
